In patent publication US8592413B2, “Therapeutic substituted cyclopentanes” (Allergan, Inc., priority 2008, dated 2013):

What was measured:
[1] = biological target: T1, hEP1 (Homo sapiens, UniProt P34995); assay: Other receptors: hEP1 EC50; format: cell-based
T1 sequence (P34995 1-402): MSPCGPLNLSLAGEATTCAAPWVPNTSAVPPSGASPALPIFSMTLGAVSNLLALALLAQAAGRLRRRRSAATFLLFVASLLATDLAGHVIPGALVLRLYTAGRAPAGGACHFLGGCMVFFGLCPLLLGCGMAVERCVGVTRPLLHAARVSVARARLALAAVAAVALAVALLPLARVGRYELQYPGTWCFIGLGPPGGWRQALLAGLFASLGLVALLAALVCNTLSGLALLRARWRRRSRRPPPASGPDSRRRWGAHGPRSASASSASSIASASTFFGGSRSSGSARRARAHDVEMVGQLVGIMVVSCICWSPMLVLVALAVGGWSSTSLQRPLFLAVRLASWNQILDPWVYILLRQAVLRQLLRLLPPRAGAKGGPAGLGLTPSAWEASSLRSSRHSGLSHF
Excerpt: (§1) US 2007/0129552, incorporated by reference herein, describes the methods used to obtain the in vitro data in the table below.

[2] = biological target: T2, EP4 (Homo sapiens, UniProt P35408); assay: EP4 flipr; format: cell-based
T2 sequence (P35408 whole entry): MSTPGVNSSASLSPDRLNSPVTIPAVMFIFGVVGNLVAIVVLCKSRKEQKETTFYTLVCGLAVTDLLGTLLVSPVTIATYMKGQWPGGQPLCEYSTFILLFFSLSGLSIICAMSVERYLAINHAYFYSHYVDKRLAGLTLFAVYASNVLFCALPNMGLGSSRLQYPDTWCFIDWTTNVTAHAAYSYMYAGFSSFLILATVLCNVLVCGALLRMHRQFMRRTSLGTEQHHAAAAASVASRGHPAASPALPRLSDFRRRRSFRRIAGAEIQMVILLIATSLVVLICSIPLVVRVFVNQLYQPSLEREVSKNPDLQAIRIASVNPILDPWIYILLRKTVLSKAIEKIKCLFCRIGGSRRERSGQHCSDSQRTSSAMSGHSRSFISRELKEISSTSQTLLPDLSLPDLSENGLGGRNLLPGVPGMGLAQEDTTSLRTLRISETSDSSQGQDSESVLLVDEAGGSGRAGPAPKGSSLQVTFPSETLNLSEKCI
Excerpt: as §1

[3] = biological target: T3, EP2 (Homo sapiens, UniProt P43116); assay: EP2 flipr; format: cell-based
T3 sequence (P43116 whole entry): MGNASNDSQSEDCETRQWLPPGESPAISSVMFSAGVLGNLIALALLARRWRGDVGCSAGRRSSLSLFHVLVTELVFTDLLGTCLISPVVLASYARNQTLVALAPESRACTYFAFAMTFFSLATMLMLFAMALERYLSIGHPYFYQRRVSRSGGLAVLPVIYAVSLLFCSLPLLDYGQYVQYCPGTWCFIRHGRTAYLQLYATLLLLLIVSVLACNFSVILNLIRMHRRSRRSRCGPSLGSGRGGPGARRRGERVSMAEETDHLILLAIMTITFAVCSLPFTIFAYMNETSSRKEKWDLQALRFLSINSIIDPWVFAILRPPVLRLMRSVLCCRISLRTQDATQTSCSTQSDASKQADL
Excerpt: as §1

[4] = biological target: T3, EP2; assay: EP2 Ki (binding)
Excerpt: as §1

[5] = biological target: T2, EP4; assay: EP4 KI (binding)
Excerpt: as §1

[6] = biological target: hIP (Homo sapiens, UniProt P43119); assay: Other receptors: hIP EC50; format: cell-based
hIP, sequence (P43119 whole entry): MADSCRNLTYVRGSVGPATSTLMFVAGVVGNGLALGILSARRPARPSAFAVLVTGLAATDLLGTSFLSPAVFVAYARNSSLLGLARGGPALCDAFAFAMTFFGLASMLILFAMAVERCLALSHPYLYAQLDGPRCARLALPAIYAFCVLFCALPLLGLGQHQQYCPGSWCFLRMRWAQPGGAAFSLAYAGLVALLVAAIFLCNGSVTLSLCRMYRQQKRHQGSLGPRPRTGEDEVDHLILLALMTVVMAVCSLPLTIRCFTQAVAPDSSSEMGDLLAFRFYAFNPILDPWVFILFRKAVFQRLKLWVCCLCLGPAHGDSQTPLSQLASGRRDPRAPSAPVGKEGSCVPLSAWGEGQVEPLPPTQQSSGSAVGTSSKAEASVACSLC
Excerpt: as §1

[7] = biological target: T4, hDP (Homo sapiens, UniProt Q13258); assay: Other receptors: hDP EC50; format: cell-based
T4 sequence (Q13258 1-359): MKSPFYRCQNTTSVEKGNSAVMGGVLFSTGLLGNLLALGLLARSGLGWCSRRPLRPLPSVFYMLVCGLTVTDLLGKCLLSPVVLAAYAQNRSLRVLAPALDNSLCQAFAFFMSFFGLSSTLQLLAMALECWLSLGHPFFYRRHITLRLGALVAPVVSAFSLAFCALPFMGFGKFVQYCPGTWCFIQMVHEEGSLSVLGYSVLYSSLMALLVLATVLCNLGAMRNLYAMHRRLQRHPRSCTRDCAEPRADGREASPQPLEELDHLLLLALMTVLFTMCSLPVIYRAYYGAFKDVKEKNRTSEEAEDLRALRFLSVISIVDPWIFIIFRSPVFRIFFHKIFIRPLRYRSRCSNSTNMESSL
Excerpt: as §1

[8] = biological target: T5, hTP (Homo sapiens, UniProt P21731); assay: Other receptors: hTP EC50; format: cell-based
T5 sequence (P21731 1-343): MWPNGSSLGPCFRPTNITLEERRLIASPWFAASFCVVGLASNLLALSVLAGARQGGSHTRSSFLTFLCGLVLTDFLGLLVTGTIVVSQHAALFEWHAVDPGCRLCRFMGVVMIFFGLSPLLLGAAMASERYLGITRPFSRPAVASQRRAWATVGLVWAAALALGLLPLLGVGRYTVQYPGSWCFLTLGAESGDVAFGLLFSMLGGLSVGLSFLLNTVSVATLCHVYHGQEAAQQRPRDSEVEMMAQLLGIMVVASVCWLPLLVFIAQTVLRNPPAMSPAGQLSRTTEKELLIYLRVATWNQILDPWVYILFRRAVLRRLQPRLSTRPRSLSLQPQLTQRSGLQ
Excerpt: as §1

[9] = biological target: T3, EP2; assay: EP2 cAMP; format: cell-based
Excerpt: as §1

[10] = biological target: T6, hEP3A (Homo sapiens, UniProt P43115); assay: Other receptors: hEP3A EC50; format: cell-based
T6 sequence (P43115 1-390): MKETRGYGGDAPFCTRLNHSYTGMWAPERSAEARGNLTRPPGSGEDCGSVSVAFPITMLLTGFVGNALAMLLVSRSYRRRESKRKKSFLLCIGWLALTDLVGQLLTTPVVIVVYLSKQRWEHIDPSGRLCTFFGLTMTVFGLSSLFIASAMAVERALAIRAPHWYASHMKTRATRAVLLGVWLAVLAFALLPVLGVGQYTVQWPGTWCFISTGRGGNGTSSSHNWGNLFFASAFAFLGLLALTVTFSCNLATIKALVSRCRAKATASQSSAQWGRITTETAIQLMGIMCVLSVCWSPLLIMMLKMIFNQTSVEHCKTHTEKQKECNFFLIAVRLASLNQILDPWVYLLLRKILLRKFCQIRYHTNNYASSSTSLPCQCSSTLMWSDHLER
Excerpt: as §1

[11] = biological target: hFP (Homo sapiens, UniProt P43088); assay: Other receptors: hFP EC50; format: cell-based
hFP, sequence (P43088 whole entry): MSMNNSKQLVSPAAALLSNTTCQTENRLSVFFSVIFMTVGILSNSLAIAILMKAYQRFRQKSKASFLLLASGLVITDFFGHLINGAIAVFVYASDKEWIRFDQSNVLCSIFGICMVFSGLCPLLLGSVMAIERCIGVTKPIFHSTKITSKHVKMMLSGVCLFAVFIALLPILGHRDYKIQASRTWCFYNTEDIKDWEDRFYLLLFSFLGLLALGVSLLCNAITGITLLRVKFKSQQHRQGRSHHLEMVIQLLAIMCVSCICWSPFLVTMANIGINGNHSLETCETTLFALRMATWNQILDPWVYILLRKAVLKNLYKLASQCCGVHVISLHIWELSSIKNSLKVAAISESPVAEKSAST
Excerpt: as §1

Row | EC50 [1] [nM] | EC50 [2] [nM] | EC50 [3] [nM] | Ki [4] [nM] | Ki [5] [nM] | EC50 [6] [nM] | EC50 [7] [nM] | EC50 [8] [nM] | EC50 [9] [nM] | EC50 [10] [nM] | EC50 [11] [nM] | SMILES
1 | 97 | 2330 | 195 | 214 | 3170 | 7 | > 10000 | 11 | 5 | 88 | 22500 | O=C(O)CCC/C=C\C[C@@H]1[C@@H](COCc2cccc(C(F)(F)F)c2)[C@H](O)C[C@H]1Cl
2 |  | 6540 | 255 | 3 | 606 |  | > 10000 | 2520 | 0.5 |  |  | CCc1cccc(COC[C@@H]2[C@@H](CCCc3ccc(C(=O)O)s3)[C@H](Cl)C[C@H]2O)c1
3 |  | 10100 | 9920 | 0.6 | 999 |  |  | 7110 | 1 | 8060 |  | O=C(O)c1ccc(CCC[C@@H]2[C@@H](CCCc3cc(Cl)cc(Cl)c3)[C@H](O)C[C@H]2Cl)s1
4 |  | > 10000 | 13800 | 4 | 1840 |  |  |  | 0.9 |  |  | CCc1cccc(CCC[C@@H]2[C@@H](CCCc3ccc(C(=O)O)s3)[C@H](Cl)C[C@H]2O)c1
5 | 4260 |  | 2520 | 0.5 | 740 |  |  |  | 0.3 |  |  | O=C(O)c1ccc(CCC[C@@H]2[C@@H](CCCc3cccc(C(F)(F)F)c3)[C@H](O)C[C@H]2Cl)s1
6 |  |  | 3260 | 11 |  |  |  |  | 1.7 |  |  | O=C(O)c1ccc(CCC[C@@H]2[C@@H](C=C=Cc3cccc(C(F)(F)F)c3)[C@H](O)C[C@H]2Cl)s1
7 |  | 4960 |  | 3 | 2160 |  | 6780 |  | 0.6 |  |  | O=C(O)c1ccc(CCC[C@@H]2[C@@H](CCCc3ccccc3)[C@H](O)C[C@H]2Cl)s1
8 |  | 11100 |  | 6 | 715 |  | 10200 |  | 1.7 |  |  | O=C(O)c1ccc(CCC[C@@H]2[C@@H](C=C=Cc3ccccc3)[C@H](O)C[C@H]2Cl)s1
9 |  |  |  | 24 |  |  | 5620 |  | 3.6 |  |  | CN(Cc1ccccc1)C[C@@H]1[C@@H](CCCc2ccc(C(=O)O)s2)[C@H](Cl)C[C@H]1O
10 |  |  |  | 143 |  |  |  |  | 6 |  |  | O=C(O)c1ccc(CCC[C@@H]2[C@@H](CNCc3ccccc3)[C@H](O)C[C@H]2Cl)s1
